Values after ≈ are worked out from the molar mass of the structure shown. Where two headings read alike, the source gives them in different places. Marks after values point to notes of the source that are not given here.
How the values were obtained:
[1] = tested on: S. aureus MSSA (ATCC 29213); experiment: MIC susceptibility testing; type: cell-based, Staphylococcus aureus
[2] = biological target: recombinant S. aureus MetRS enzyme (Staphylococcus aureus, UniProt A0A0H2XID2); experiment: Inhibition of SaMetRS, ATP depletion assay; type: biochemical
Sequence of recombinant S. aureus MetRS enzyme (A0A0H2XID2 2-657): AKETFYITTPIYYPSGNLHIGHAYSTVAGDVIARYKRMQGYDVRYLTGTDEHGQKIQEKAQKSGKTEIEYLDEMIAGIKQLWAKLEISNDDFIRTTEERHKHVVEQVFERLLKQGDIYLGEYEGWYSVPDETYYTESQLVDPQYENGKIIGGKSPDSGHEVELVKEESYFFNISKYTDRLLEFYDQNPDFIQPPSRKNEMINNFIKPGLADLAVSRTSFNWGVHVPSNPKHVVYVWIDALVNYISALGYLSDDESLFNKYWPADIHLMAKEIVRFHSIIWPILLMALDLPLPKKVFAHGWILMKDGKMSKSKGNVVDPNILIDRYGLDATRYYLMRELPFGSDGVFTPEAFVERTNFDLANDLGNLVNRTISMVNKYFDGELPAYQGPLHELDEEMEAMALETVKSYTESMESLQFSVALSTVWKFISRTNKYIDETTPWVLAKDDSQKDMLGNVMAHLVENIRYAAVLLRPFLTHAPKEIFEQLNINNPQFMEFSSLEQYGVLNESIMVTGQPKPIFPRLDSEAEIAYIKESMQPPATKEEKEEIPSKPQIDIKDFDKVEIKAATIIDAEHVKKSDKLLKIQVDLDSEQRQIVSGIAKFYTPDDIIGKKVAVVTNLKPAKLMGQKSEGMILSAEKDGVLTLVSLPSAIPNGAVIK
In short: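 IC50 values come from sigmoidal fits of percent inhibition, based on ATP left after 120 min as measured by Kinase-Glo. Substrates were 20 μM L-methionine and 150 nM ATP, added after compounds sat 15 min at room temperature with 25 nM His-tagged SaMetRS, bulk E. coli tRNA, pH 7.9 HEPES buffer and 2% DMSO.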

[3] = tested on: P. aeruginosa (ATCC 27853); experiment: MIC susceptibility testing; type: cell-based; conditions: Pseudomonas aeruginosa, ATCC27853
E. faecalis (ATCC 29212) = experiment: MIC susceptibility testing; type: cell-based
[4] = tested on: S. pneumoniae (ATCC 49619); experiment: MIC susceptibility testing; type: cell-based; conditions: Streptococcus pneumoniae, ATCC49619, 18 h, read-out: S. pneumoniae (ATCC 49619) MIC
E. coli (ATCC 25922) = experiment: MIC susceptibility testing; type: cell-based; conditions: Escherichia coli, ATCC25922
In short: (§1)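 CLSI broth microdilution with two-fold compound dilutions, in triplicate; cells added in medium at 1×10^6 CFUs/mL, DMSO ≤0.5%. Media: MHB for S. aureus, CA-MHB for E. coli and E. faecium, CA-MHB plus 3% laked horse blood for S. pyogenes (5% CO2).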

[5] = tested on: S. aureus MRSA (ATCC 43300); experiment: MIC susceptibility testing; type: cell-based
In short: as §1

S. pyogenes (ATCC 19615) = experiment: MIC susceptibility testing; type: cell-based; conditions: Streptococcus pyogenes, ATCC19615, 18 h, read-out: S. pyogenes (ATCC 19615) MIC
[6] = Cytotoxicity testing on mammalian cells (AlamarBlue, 48 hours); type: cell-based; conditions: human
Procedure: Cytotoxicity testing on mammalian cells: Compounds were assayed for cytotoxicity against CRL-8155 (human lymphoblasts) and HepG2 cells (human hepatocellular carcinoma). Cells were exposed to serial dilutions of compounds for 48 hours and toxicity was quantified using AlamarBlue (ThermoFisher Scientific, Waltham, Mass.). Assays were performed in quadruplicate and EC50 values were calculated with non-linear regression methods using software by the Collaborative Drug Database (Burlingame, Calif. www.collaborativedrug.com)

[7] = tested on: E. faecium VRE (ATCC 51559); experiment: MIC susceptibility testing; type: cell-based, Enterococcus faecium
In short: as §1

S. aureus = experiment: Serum shift assays (MIC with and without 50% human serum); type: cell-based, Staphylococcus aureus; conditions: for MIC: Staphylococcus aureus
Procedure: Serum shift assays: To assess the role of protein binding on compound susceptibility, MIC determinations were performed in triplicate in the presence and absence of 50% human serum. Serial threefold dilutions of 2× compound were generated in MHB and aliquoted onto 96 well plates with a DMSO limit of 0.5%. Bacteria were adjusted to 1*10^8 CFUs/mL in MHB, then further diluted 1:100 in MHB and 100% heat deactivated filter sterilized pooled human serum. Fifty microliters were added to each well of the corresponding plates, and the plates were incubated at 37° C. for ˜20 h. The lowest concentration causing ≥90% growth inhibition was recorded as the MIC.

E. faecium (ATCC 19434) = experiment: MIC susceptibility testing; type: cell-based
In short: as §1

[8] = tested on: S. aureus VISA (ATCC 700699); experiment: MIC susceptibility testing; type: cell-based
In short: as §1

S. aureus (ATCC 29213) [9] = experiment: Macromolecular synthesis assays (radiolabeled precursor incorporation); type: cell-based, Staphylococcus aureus; conditions: 30 minute incubations
Procedure: Macromolecular synthesis assays: Methods for measuring uptake of radiolabeled precursors by S. aureus (ATCC strain 29213) were adapted from previous publications. For these assays, bacteria were grown in defined media (DM): RPMI-1640 pH 7.3±0.1 without phenol red or L-glutamine (Lonza, Basel, Switzerland) supplemented with 4 mM L-glutamine (Lonza, Basel, Switzerland), 10 mM HEPES (Lonza, Basel, Switzerland), and 1% (w/v) D-glucose (Sigma Aldrich, St. Louis, Mo.). Fresh overnight cultures grown in DM at 37° C. were diluted 1:50 in pre-warmed DM and grown at 37° C. with shaking (150 rpm) until reaching an OD600 of 0.420 correlating to ˜1*10^9 CFUs/mL in mid-log phase. Each compound was assayed in quadruplicate with an 11-point three-fold serial dilution per radioisotope. A pre-warmed 96-well V-bottom plate (Corning 3894; Corning, Corning, Mass.) containing 25 μL of 4× final concentration of test compound was inoculated with 65 μL of mid-log phase bacteria (OD600 of 0.420). Both positive and negative control wells received 25 μL untreated DM and 65 μL of inoculum at the same time. After one minute, 10 μL of radiolabeled precursor (10× final concentration in DM) was added to samples and positive control wells. Final isotope concentrations for assay of [3H]-lysine (protein), [3H]-thymidine (DNA), and [3H]-uridine (RNA) were 10 μCi/mL, 2 μCi/mL, and 2 μCi/mL respectively. […] After termination, 10 μL of 10× radiolabeled precursor was added to negative control wells. The negative control consisted of adding radiolabeled precursors after termination of the bacterial incubation in order to represent background measurement of the isotope. Plates were sealed with plate tape (Thermo Fischer Scientific, Waltham, Mass.) and shaken at 250 rpm for one hour at room temperature. Aliquots of 125 μL were transferred from the 96-well V-bottom plates to 96-well filter plates (Merck Millipore, Billerica, Mass.). To bind macromolecules, the samples were passed through the filter membrane (0.45 μM hydrophilic Durapore PVDF membrane) with a vacuum manifold, then the filter was washed with 4×200 μL 10% TCA and 1×150 μL of 95% ethanol, and dried overnight in vacuum at room temperature. 25 μL Ultima Gold scintillation fluid (Perkin Elmer, Waltham, Mass.) was added to each well and DPM was quantified using a MicroBeta^2-2450 (Perkin Elmer, Waltham, Mass.) scintillation counter. The percent incorporation was determined by subtracting each well by the average negative background and dividing by the average positive incorporation×100. Error bars represent SEM between replicates. The assay was run twice with similar results.

[10] = Data from Drugbank; cited from earlier work
[11] = tested on: S. aureus MRSA (ATCC 33591); experiment: MIC susceptibility testing; type: cell-based, Staphylococcus aureus; conditions: Staphylococcus aureus, read-out: S. aureus MRSA (ATCC 33591) MIC
In short: as §1

[12] = tested on: S. epidermidis (ATCC 12228); experiment: MIC susceptibility testing; type: cell-based; conditions: Staphylococcus epidermidis, ATCC12228, read-out: S. epidermidis (ATCC 12228) MIC
[13] = tested on: S. epidermidis (ATCC 49134); experiment: MIC susceptibility testing; type: cell-based; conditions: Staphylococcus epidermidis, ATCC49134, read-out: S. epidermidis (ATCC 49134) MIC
[14] = tested on: S. aureus MSSA (ATCC 19636); experiment: MIC susceptibility testing; type: cell-based; conditions: Staphylococcus aureus, read-out: S. aureus MSSA (ATCC 19636) MIC
In short: as §1

[15] = value printed with (49), probably a literature reference; cited from earlier work
S. aureus (ATCC 29213) [16] = experiment: MBC determinations (with MIC); type: cell-based; conditions: Staphylococcus aureus, ATCC29213
Procedure: Maximum DMSO concentrations were 0.5%. […] Each experiment's inoculum was serially diluted and plated on TSA to count competent cells. Cultures were incubated at 37° C. for at least 20 h and plated on TSA for CFU determination.
MIC/MBC: Measurements of minimum bactericidal concentrations (MBCs) were done with the S. aureus strain ATCC 29213 (Table 5).

[17] = recombinant enzyme, lower limit of detection 0.025 μM, read-out: MetRS S. aureus (enzyme) IC50
[18] = medium with 3% laked horse blood
[19] = CRL-8155 cells (human lymphoblasts), read-out: Mamm. cells (CRL8155) CC50
[20] = HepG2 cells (human hepatocellular carcinoma), read-out: Mamm. cells (HepG2) CC50
[21] = Enterococcus faecium; read-out: E. faecium VRE (ATCC 51559) MIC
[22] = read-out: Avg MIC ± SEM (+50% serum), 50% human serum
[23] = read-out: Avg MIC ± SEM (no serum), no serum

## Clc1cc(Cl)cc(CNCCCNc2nc3ncccc3[nH]2)c1 [Compound 1575, N1-(3,5-dichlorobenzyl)—N3-(1H-imidazo[4,5-b]pyridin-2-yl)propane-1,3-diamine]
[1]; Staphylococcus aureus, 18 h; read-out: S. aureus MSSA (ATCC 29213) MIC
  MIC: 10 mg/L (≈ 28.6 µM)
[2]; [17]
  IC50: < 0.025 µM
[3]
  MIC: > 10 mg/L
E. faecalis (ATCC 29212); Enterococcus faecalis, ATCC29212; read-out: E. faecalis (ATCC 29212) MIC
  MIC: 1.25 mg/L (≈ 3.57 µM)
[4]; [18]
  MIC: > 10 mg/L
E. coli (ATCC 25922)
  MIC: > 10 mg/L
[5]; Staphylococcus aureus; read-out: S. aureus MRSA (ATCC 43300) MIC
  MIC: > 10 mg/L
S. pyogenes (ATCC 19615); [18]
  MIC: > 10 mg/L
[6]; [19]
  CC50 at 48 h: 12.2 mg/L (≈ 34.8 µM)
[6]; [20]
  CC50 at 48 h: > 17.5 mg/L
[7]; [21]
  MIC: 0.625 mg/L (≈ 1.78 µM)

## O=C(O)c1cn(C2CC2)c2cc(N3CCNCC3)c(F)cc2c1=O [CIP, ciprofloxacin]
S. aureus; [22]
  MIC: 0.152 ± 0.01 mg/L
S. aureus; [23]
  MIC: 0.145 ± 0.001 mg/L
[2]
  IC50: > 10 µM
E. coli (ATCC 25922)
  MIC: 0.039 mg/L (≈ 0.118 µM)
E. faecium (ATCC 19434); Enterococcus faecium, ATCC19434; read-out: E. faecium (ATCC 19434) MIC
  MIC: 5 mg/L (≈ 15.1 µM)
[8]; Staphylococcus aureus; read-out: S. aureus VISA (ATCC 700699) MIC
  MIC: > 10 mg/L
S. pyogenes (ATCC 19615)
  MIC: 0.625 mg/L (≈ 1.89 µM)
[7]; [21]
  MIC: 5 mg/L (≈ 15.1 µM)
S. aureus (ATCC 29213) [9]
  incorporation of 3H-thymidine (DNA synthesis): selective inhibition of DNA synthesis

## CN[C@H](CC(C)C)C(=O)N[C@H]1C(=O)N[C@@H](CC(N)=O)C(=O)N[C@H]2C(=O)N[C@H]3C(=O)N[C@H](C(=O)N[C@H](C(=O)O)c4cc(O)cc(O)c4-c4cc3ccc4O)[C@H](O)c3ccc(c(Cl)c3)Oc3cc2cc(c3O[C@@H]2O[C@H](CO)[C@@H](O)[C@H](O)[C@H]2O[C@H]2C[C@](C)(N)[C@H](O)[C@H](C)O2)Oc2ccc(cc2Cl)[C@H]1O [VAN, vancomycin]
[10]
  % binding to human plasma: 55* %
[1]; Staphylococcus aureus, 18 h, read-out: S. aureus MSSA (ATCC 29213) MIC
  MIC: 1.25 mg/L (≈ 0.863 µM)
[11]
  MIC: 1.25 mg/L (≈ 0.863 µM)
S. aureus; 50% human serum
  Avg MIC ± SEM (+50% serum): 1.213 ± 0.12 mg/L
S. aureus; [22]
  MIC: 1.21 mg/L
S. aureus; [23]
  MIC: 0.714 ± 0.05 mg/L
[2]; [17]
  IC50: > 10 µM
[12]
  MIC: 2.5 mg/L (≈ 1.73 µM)
E. faecalis (ATCC 29212); Enterococcus faecalis, ATCC29212, read-out: E. faecalis (ATCC 29212) MIC
  MIC: 5 mg/L (≈ 3.45 µM)
[4]
  MIC: 0.313 mg/L (≈ 0.216 µM)
E. faecium (ATCC 19434); Enterococcus faecium, ATCC19434, read-out: E. faecium (ATCC 19434) MIC
  MIC: 0.625 mg/L (≈ 0.431 µM)
[5]; Staphylococcus aureus, read-out: S. aureus MRSA (ATCC 43300) MIC
  MIC: 1.25 mg/L (≈ 0.863 µM)
[13]
  MIC: 2.5 mg/L (≈ 1.73 µM)
[8]; Staphylococcus aureus, read-out: S. aureus VISA (ATCC 700699) MIC
  MIC: 10 mg/L (≈ 6.9 µM)
S. pyogenes (ATCC 19615)
  MIC: 0.625 mg/L (≈ 0.431 µM)
[14]
  MIC: 1.25 mg/L (≈ 0.863 µM)
[6]; [19]
  CC50 at 48 h: > 145 mg/L
[6]; [20]
  CC50 at 48 h: > 145 mg/L
[7]; Enterococcus faecium, read-out: E. faecium VRE (ATCC 51559) MIC
  MIC: > 10 mg/L
[15]
  % binding to mouse plasma: 25 (49) %
S. aureus (ATCC 29213) [16]
  MBC: 5 mg/L (≈ 3.45 µM)
  MIC: 1.25 mg/L (≈ 0.863 µM)

Reference: patent US11584744B2 (UNIVERSITY OF WASHINGTON, priority 2017, dated 2023)
